Source: patent US11370798B2 (Vertex Pharmaceuticals Incorporated, priority 2012, dated 2022)

Tested on: HCT116 colorectal cancer cells
Experiment: Cisplatin sensitization assay (96 h cell viability MTS);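 further: Test-compound concentration that lowers the Cisplatin IC50 by a set fold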
Type: cell-based
Conditions: compound and Cisplatin added simultaneously, Cisplatin sensitization value
Procedure, shortened: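 Compound and cisplatin added together as a full matrix of 2-fold serial dilutions from a top final concentration of 10 μM; cells incubated 96 h at 37° C, 5% CO2. Viability then read by MTS after 1 h further incubation; sensitization value reported in μM bins.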

SMILES | Cisplatin Sensitization Assay
Nc1nn2cc(F)cnc2c1C(=O)Nc1cncc(F)c1N1CCC(CN2CCOCC2)CC1 [I-N-149, 2-amino-6-fluoro-N-(5-fluoro-4-(4-(morpholinomethyl)piperidin-1-yl)pyridin-3-yl)pyrazolo[1,5-a]pyrimidine-3-carboxamide] | +++ (Cisplatin sensitization value of <0.02 μM)
N#CCc1cnc2c(C(=O)Nc3cnccc3OC3CCNCC3)c(N)nn2c1 [I-O-84, 2-amino-6-(cyanomethyl)-N-(4-(piperidin-4-yloxy)pyridin-3-yl)pyrazolo[1,5-a]pyrimidine-3-carboxamide] | ++ (Cisplatin sensitization value>0.02 μM but <0.2 μM)
CN1CCN2CCN(c3ccncc3NC(=O)c3c(N)nn4cc(F)cnc34)CC2C1=O (centres unmarked) [I-N-233, 2-amino-6-fluoro-N-(4-(8-methyl-9-oxohexahydro-1H-pyrazino[1,2-a]pyrazin-2(6H)-yl)pyridin-3-yl)pyrazolo[1,5-a]pyrimidine-3-carboxamide] | ++ (Cisplatin sensitization value>0.02 μM but <0.2 μM)
CN(C)C1CCN(C2CCN(c3ccncc3NC(=O)c3c(N)nn4cc(Cl)cnc34)CC2)C1 (centres unmarked) [I-N-106, 2-amino-6-chloro-N-(4-(4-(3-(dimethylamino)pyrrolidin-1-yl)piperidin-1-yl)pyridin-3-yl)pyrazolo[1,5-a]pyrimidine-3-carboxamide] | +++ (Cisplatin sensitization value of <0.02 μM)
Nc1nn2cc(F)cnc2c1C(=O)Nc1cnccc1O[C@H]1CN2CCC1CC2 [I-O-5, (R)-2-amino-6-fluoro-N-(4-(quinuclidin-3-yloxy)pyridin-3-yl)pyrazolo[1,5-a]pyrimidine-3-carboxamide] | +++ (Cisplatin sensitization value of <0.02 μM)
CO[C@H]1CCN(C(=O)C2CCN(c3ccncc3NC(=O)c3c(N)nn4cc(F)cnc34)CC2)C1 [I-G-94, (S)-2-amino-6-fluoro-N-(4-(4-(3-methoxypyrrolidine-1-carbonyl)piperidin-1-yl)pyridin-3-yl)pyrazolo[1,5-a]pyrimidine-3-carboxamide] | +++ (Cisplatin sensitization value of <0.02 μM)
Nc1nn2cc(F)cnc2c1C(=O)Nc1cncc(F)c1N1CCN2C(=O)CC[C@@H]2C1 [I-N-186, (R)-2-amino-6-fluoro-N-(5-fluoro-4-(6-oxohexahydropyrrolo[1,2-a]pyrazin-2(1H)-yl)pyridin-3-yl)pyrazolo[1,5-a]pyrimidine-3-carboxamide] | +++ (Cisplatin sensitization value of <0.02 μM)
Cc1nncn1-c1ccncc1NC(=O)c1c(N)nn2cc(F)cnc12 [I-N-263, 2-amino-6-fluoro-N-(4-(3-methyl-4H-1,2,4-triazol-4-yl)pyridin-3-yl)pyrazolo[1,5-a]pyrimidine-3-carboxamide] | + (Cisplatin sensitization value>0.2 μM but <5 μM)
Nc1nn2cc(F)cnc2c1C(=O)Nc1cnccc1N1CCN(C2COC2)C2CC21 (centres unmarked) [I-N-112, 2-amino-6-fluoro-N-(4-(5-(oxetan-3-yl)-2,5-diazabicyclo[4.1.0]heptan-2-yl)pyridin-3-yl)pyrazolo[1,5-a]pyrimidine-3-carboxamide] | + (Cisplatin sensitization value>0.2 μM but <5 μM)
Nc1nn2cc(F)cnc2c1C(=O)Nc1cnccc1N1CCN2[C@@H](CCS2(=O)=O)C1 [I-N-247, (S)-2-amino-N-(4-(1,1-dioxidotetrahydro-2H-isothiazolo[2,3-a]pyrazin-5(3H)-yl)pyridin-3-yl)-6-fluoropyrazolo[1,5-a]pyrimidine-3-carboxamide] | +++ (Cisplatin sensitization value of <0.02 μM)
Nc1nn2cc(F)cnc2c1C(=O)Nc1cncc(F)c1N1CCC(C(=O)N2CCC(N3CCCC3)CC2)CC1 [I-G-59, 2-amino-6-fluoro-N-(5-fluoro-4-(4-(4-(pyrrolidin-1-yl)piperidine-1-carbonyl)piperidin-1-yl)pyridin-3-yl)pyrazolo[1,5-a]pyrimidine-3-carboxamide] | +++ (Cisplatin sensitization value of <0.02 μM)
Nc1nn2cc(F)cnc2c1C(=O)Nc1cncc(C2CC2)c1N1CCN([C@H]2CCOC2)CC1 [I-N-120, (S)-2-amino-N-(5-cyclopropyl-4-(4-(tetrahydrofuran-3-yl)piperazin-1-yl)pyridin-3-yl)-6-fluoropyrazolo[1,5-a]pyrimidine-3-carboxamide] | +++ (Cisplatin sensitization value of <0.02 μM)
CC1(O)CN(C(=O)C2CCN(c3c(F)cncc3NC(=O)c3c(N)nn4cc(F)cnc34)CC2)C1 [I-G-63, 2-amino-6-fluoro-N-(5-fluoro-4-(4-(3-hydroxy-3-methylazetidine-1-carbonyl)piperidin-1-yl)pyridin-3-yl)pyrazolo[1,5-a]pyrimidine-3-carboxamide] | +++ (Cisplatin sensitization value of <0.02 μM)
Nc1nn2cc(F)cnc2c1C(=O)Nc1cnccc1N1CCCCCC1 [I-N-264, 2-amino-N-(4-(azepan-1-yl)pyridin-3-yl)-6-fluoropyrazolo[1,5-a]pyrimidine-3-carboxamide] | + (Cisplatin sensitization value>0.2 μM but <5 μM)
CC1(C)CN(c2ccncc2NC(=O)c2c(N)nn3cc(F)cnc23)CCS1(=O)=O [I-N-252, 2-amino-N-(4-(2,2-dimethyl-1,1-dioxidothiomorpholino)pyridin-3-yl)-6-fluoropyrazolo[1,5-a]pyrimidine-3-carboxamide] | +++ (Cisplatin sensitization value of <0.02 μM)
CN1CC2CC1CN2C(=O)C1CCN(c2c(F)cncc2NC(=O)c2c(N)nn3cc(F)cnc23)CC1 (centres unmarked) [I-G-53, 2-amino-6-fluoro-N-(5-fluoro-4-(4-(5-methyl-2,5-diazabicyclo[2.2.1]heptane-2-carbonyl)piperidin-1-yl)pyridin-3-yl)pyrazolo[1,5-a]pyrimidine-3-carboxamide] | +++ (Cisplatin sensitization value of <0.02 μM)
Nc1nn2cc(F)cnc2c1C(=O)Nc1cnccc1O[C@H]1CCCNC1 [I-O-85, (S)-2-amino-6-fluoro-N-(4-(piperidin-3-yloxy)pyridin-3-yl)pyrazolo[1,5-a]pyrimidine-3-carboxamide] | +++ (Cisplatin sensitization value of <0.02 μM)
CN1CCN(c2ccc(-c3ccncc3NC(=O)c3c(N)nn4cc(F)cnc34)cn2)CC1 [I-C-21, 2-amino-6-fluoro-N-(6-(4-methylpiperazin-1-yl)-[3,4′-bipyridin]-3′-yl)pyrazolo[1,5-a]pyrimidine-3-carboxamide] | +++ (Cisplatin sensitization value of <0.02 μM)
Cc1cncc(NC(=O)c2c(N)nn3cc(F)cnc23)c1N1CCN(C2COC2)CC1 [I-N-16, 2-amino-6-fluoro-N-(5-methyl-4-(4-(oxetan-3-yl)piperazin-1-yl)pyridin-3-yl)pyrazolo[1,5-a]pyrimidine-3-carboxamide] | +++ (Cisplatin sensitization value of <0.02 μM)
Nc1nn2cc(Cl)cnc2c1C(=O)Nc1cnccc1OC1CCNCC1 [I-O-80, 2-amino-6-chloro-N-(4-(piperidin-4-yloxy)pyridin-3-yl)pyrazolo[1,5-a]pyrimidine-3-carboxamide] | +++ (Cisplatin sensitization value of <0.02 μM)
Nc1nn2cc(Cl)cnc2c1C(=O)Nc1cnccc1N1CCN2CCC[C@@H]2C1 [I-N-65, (R)-2-amino-6-chloro-N-(4-(hexahydropyrrolo[1,2-a]pyrazin-2(1H)-yl)pyridin-3-yl)pyrazolo[1,5-a]pyrimidine-3-carboxamide] | + (Cisplatin sensitization value>0.2 μM but <5 μM)
CN1CCC(Oc2ccncc2NC(=O)c2c(N)nn3cc(Cl)cnc23)CC1 [I-O-64, 2-amino-6-chloro-N-(4-((1-methylpiperidin-4-yl)oxy)pyridin-3-yl)pyrazolo[1,5-a]pyrimidine-3-carboxamide] | +++ (Cisplatin sensitization value of <0.02 μM)
Nc1nn2cc(Cl)cnc2c1C(=O)Nc1cnccc1N1CCC(N2CC[C@H](F)C2)CC1 [I-N-103, (S)-2-amino-6-chloro-N-(4-(4-(3-fluoropyrrolidin-1-yl)piperidin-1-yl)pyridin-3-yl)pyrazolo[1,5-a]pyrimidine-3-carboxamide] | +++ (Cisplatin sensitization value of <0.02 μM)
Nc1nn2cc(F)cnc2c1C(=O)Nc1cnccc1N1CCN2C(=O)CCCC2C1 (centres unmarked) [I-N-244, 2-amino-6-fluoro-N-(4-(6-oxohexahydro-1H-pyrido[1,2-a]pyrazin-2(6H)-yl)pyridin-3-yl)pyrazolo[1,5-a]pyrimidine-3-carboxamide] | +++ (Cisplatin sensitization value of <0.02 μM)
Nc1nn2cc(F)cnc2c1C(=O)Nc1cnccc1-n1cccn1 [I-N-26, N-(4-(1H-pyrazol-1-yl)pyridin-3-yl)-2-amino-6-fluoropyrazolo[1,5-a]pyrimidine-3-carboxamide] | + (Cisplatin sensitization value>0.2 μM but <5 μM)
Cc1cncc(NC(=O)c2c(N)nn3cc(Cl)cnc23)c1N1CCN(C)CC1 [I-N-57, 2-amino-6-chloro-N-(5-methyl-4-(4-methylpiperazin-1-yl)pyridin-3-yl)pyrazolo[1,5-a]pyrimidine-3-carboxamide] | +++ (Cisplatin sensitization value of <0.02 μM)
CNC1CN(C(=O)C2CCN(c3c(F)cncc3NC(=O)c3c(N)nn4cc(F)cnc34)CC2)C1 [I-G-34, 2-amino-6-fluoro-N-(5-fluoro-4-(4-(3-(methylamino)azetidine-1-carbonyl)piperidin-1-yl)pyridin-3-yl)pyrazolo[1,5-a]pyrimidine-3-carboxamide] | +++ (Cisplatin sensitization value of <0.02 μM)
CN1CCN(C(=O)[C@H]2CC[C@@H](Oc3ccncc3NC(=O)c3c(N)nn4cc(F)cnc34)CC2)CC1 [I-O-19, 2-amino-6-fluoro-N-(4-(((1s,4s)-4-(4-methylpiperazine-1-carbonyl)cyclohexyl)oxy)pyridin-3-yl)pyrazolo[1,5-a]pyrimidine-3-carboxamide] | +++ (Cisplatin sensitization value of <0.02 μM)
CC1(O)CCN(c2ccncc2NC(=O)c2c(N)nn3cc(Cl)cnc23)CC1 [I-N-66, 2-amino-6-chloro-N-(4-(4-hydroxy-4-methylpiperidin-1-yl)pyridin-3-yl)pyrazolo[1,5-a]pyrimidine-3-carboxamide] | +++ (Cisplatin sensitization value of <0.02 μM)
